The record followed here is US10246456B2, “IRAK4 inhibiting agents” (BIOGEN MA INC., priority 2014, dated 2019).

The term pIC50 denotes the negative decadic logarithm of the IC50, by convention in mol/L. Low values mean a high IC50, high ones a low IC50.

Molecules are shown by their SMILES. pIC50: −log10 of the molar value. A value given as a limit tells only on which side of the number the result lay.

IRAK4, sequence (Q9NWZ3 whole entry, species assumed): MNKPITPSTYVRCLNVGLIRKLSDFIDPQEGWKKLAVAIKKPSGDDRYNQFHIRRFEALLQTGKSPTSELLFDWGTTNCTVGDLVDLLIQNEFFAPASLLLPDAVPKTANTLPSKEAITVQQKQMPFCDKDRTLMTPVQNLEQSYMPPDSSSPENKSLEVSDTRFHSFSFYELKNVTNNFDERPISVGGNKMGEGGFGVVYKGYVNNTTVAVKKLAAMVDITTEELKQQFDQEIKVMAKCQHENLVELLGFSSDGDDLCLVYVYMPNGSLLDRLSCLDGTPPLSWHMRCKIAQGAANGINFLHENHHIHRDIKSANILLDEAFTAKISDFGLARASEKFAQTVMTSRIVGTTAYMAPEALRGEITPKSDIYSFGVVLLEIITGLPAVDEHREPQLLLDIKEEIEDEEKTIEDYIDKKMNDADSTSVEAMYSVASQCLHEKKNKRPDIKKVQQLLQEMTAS

This experiment concerns the target IRAK4 (Homo sapiens (Human), UniProt Q9NWZ3). As to the kind of experiment: IRAK-4 AlphaScreen biochemical kinase assay. The settings on record: 1 nM IRAK4, 1 mM ATP, 3.5 h at RT. The essentials: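 AlphaScreen read-out: streptavidin beads bind the biotinylated peptide and protein A beads bind the anti-phosphothreonine antibody, so energy transfer reports phosphorylation of the peptide. The kinase is human IRAK-4.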
In general terms: Alpha assays give light when donor and acceptor beads are brought close together.
For the compound `CS(=O)(=O)CCNC(=O)c1cccc(-n2ncc3ccc(-c4cncc(N)c4)cc32)n1` [Example 74, 6-(6-(5-aminopyridin-3-yl)-1H-indazol-1-yl)-N-(2-(methylsulfonyl)ethyl)picolinamide], the pIC50 is 5.00 to 6.00. As to `N#Cc1cccc(-c2ncc3ccc(-c4cncc(N)c4)cn23)c1` [Example 75, 3-(6-(5-aminopyridin-3-yl)imidazo[1,5-a]pyridin-3-yl)benzonitrile], the pIC50 is 5.00 to 6.00. `N#Cc1cccc(-c2ncc3ccc(-c4cncc(N)c4)cn23)n1` [Example 76, 6-(6-(5-aminopyridin-3-yl)imidazo[1,5-a]pyridin-3-yl)picolinonitrile]: the pIC50 is > 7.00. `NC(=O)c1cccc(-c2ncc3ccc(-c4cncc(N)c4)cn23)n1` [Example 77, 6-(6-(5-aminopyridin-3-yl)imidazo[1,5-a]pyridin-3-yl)picolinamide]: the pIC50 is 6.00 to 7.00. Take `Nc1cncc(-c2ccc3cnc(-c4cccc(C(F)(F)F)n4)n3c2)c1` [Example 78, 5-(3-(6-(trifluoromethyl)pyridin-2-yl)imidazo[1,5-a]pyridin-6-yl)pyridin-3-amine]: the negative logarithm of the IC50 (pIC50) is > 7.00.

Consider `CC(N)c1cccc(-c2ccc3cnc(-c4cccc(C(F)(F)F)n4)n3c2)n1` (stereo not drawn) [Example 79, 1-(6-(3-(6-(trifluoromethyl)pyridin-2-yl)imidazo[1,5-a]pyridin-6-yl)pyridin-2-yl)ethanamine], for which the pIC50 is > 7.00. Next, `NCc1cc(N)cc(-c2ccc3cnn(-c4cccc(C(F)(F)F)n4)c3c2)n1` [Example 80, 2-(aminomethyl)-6-(1-(6-(trifluoromethyl)pyridin-2-yl)-1H-indazol-6-yl)pyridin-4-amine]: > 7.00; `N#CCc1cccc(-n2ncc3ccc(-c4cncc(N)c4)cc32)n1` [Example 81, 2-(6-(6-(5-aminopyridin-3-yl)-1H-indazol-1-yl)pyridin-2-yl)acetonitrile]: 6.00 to 7.00; `Nc1cncc(-c2ccc3cnn(-c4cccc(CC(=O)O)n4)c3c2)c1` [Example 82, 2-(6-(6-(5-aminopyridin-3-yl)-1H-indazol-1-yl)pyridin-2-yl)acetic acid]: 5.00 to 6.00.

Take `Nc1cc(C(=O)O)cc(-c2ccc3cnn(-c4cccc(C(F)(F)F)n4)c3c2)c1` [Example 85, 3-amino-5-(1-(6-(trifluoromethyl)pyridin-2-yl)-1H-indazol-6-yl)benzoic Acid]: the pIC50 was > 7.00. Regarding `N#CCNC(=O)c1cc(-c2ccc3cnn(-c4cccc(C(F)(F)F)n4)c3c2)cc(N)n1` [Example 87, 6-amino-N-(cyanomethyl)-4-(1-(6-(trifluoromethyl)pyridin-2-yl)-1H-indazol-6-yl)picolinamide], the negative-log IC50 (pIC50) was 6.00 to 7.00. As to `NCCNC(=O)c1cc(N)cc(-c2ccc3cnn(-c4cccc(C(F)(F)F)n4)c3c2)c1` [Example 88, 3-amino-N-(2-aminoethyl)-5-(1-(6-(trifluoromethyl)pyridin-2-yl)-1H-indazol-6-yl)benzamide], the pIC50 was > 7.00. For `CC(N)c1cccc(-c2ccc3cnn(-c4cccc(C(F)(F)F)n4)c3c2)c1` (stereo not drawn) [Example 89, 1-(3-(1-(6-(trifluoromethyl)pyridin-2-yl)-1H-indazol-6-yl)phenyl)ethanamine], the pIC50 is > 7.00. To `CC(N)c1cncc(-c2ccc3cnn(-c4cccc(C(F)(F)F)n4)c3c2)c1` (stereo not drawn) [Example 90, 1-(5-(1-(6-(trifluoromethyl)pyridin-2-yl)-1H-indazol-6-yl)pyridin-3-yl)ethanamine] belongs > 7.00; to `CC(N)c1cc(-c2ccc3cnn(-c4cccc(C(F)(F)F)n4)c3c2)ccn1` (stereo not drawn) [Example 91, 1-(4-(1-(6-(trifluoromethyl)pyridin-2-yl)-1H-indazol-6-yl)pyridin-2-yl)ethanamine], 6.00 to 7.00; to `N#Cc1cncc(-c2ccc3cnn(-c4cccc(C(F)(F)F)n4)c3c2)n1` [Example 92, 6-(1-(6-(trifluoromethyl)pyridin-2-yl)-1H-indazol-6-yl)pyrazine-2-carbonitrile], 5.00 to 6.00. On to `NCc1cncc(-c2ccc3cnn(-c4cccc(C(F)(F)F)n4)c3c2)n1` [Example 93, (6-(1-(6-(trifluoromethyl)pyridin-2-yl)-1H-indazol-6-yl)pyrazin-2-yl)methanamine], for which the pIC50 is 5.00 to 6.00.

Compound `N#Cc1nccc(-c2ccc3cnn(-c4cccc(C(F)(F)F)n4)c3c2)n1` [Example 94, 4-(1-(6-(trifluoromethyl)pyridin-2-yl)-1H-indazol-6-yl)pyrimidine-2-carbonitrile] had a pIC50 of 5.00 to 6.00. As for `NCc1nccc(-c2ccc3cnn(-c4cccc(C(F)(F)F)n4)c3c2)n1` [Example 95, (4-(1-(6-(trifluoromethyl)pyridin-2-yl)-1H-indazol-6-yl)pyrimidin-2-yl)methanamine], the pIC50 was 5.00 to 6.00.

The compound `Nc1cncc(-c2ccc3cnn(-c4cccc(C(F)(F)F)n4)c3c2)n1` [Example 96, 6-(1-(6-(trifluoromethyl)pyridin-2-yl)-1H-indazol-6-yl)pyrazin-2-amine] showed a pIC50 of 6.00 to 7.00. Next, `FC(F)(F)c1cccc(-n2ncc3ccc(-c4cccc(C5CCCN5)n4)cc32)n1` (stereo not drawn) [Example 97, 6-(6-(pyrrolidin-2-yl)pyridin-2-yl)-1-(6-(trifluoromethyl)pyridin-2-yl)-1H-indazole]: 6.00 to 7.00; `CN1CCCC1c1cccc(-c2ccc3cnn(-c4cccc(C(F)(F)F)n4)c3c2)n1` (stereo not drawn) [Example 98, 6-(6-(1-methylpyrrolidin-2-yl)pyridin-2-yl)-1-(6-(trifluoromethyl)pyridin-2-yl)-1H-indazole]: 5.00 to 6.00. As to `Cc1cccc(-c2ncc3ccc(-c4cccc(C(C)N)n4)cn23)n1` (stereo not drawn) [Example 99, 1-(6-(3-(6-methylpyridin-2-yl)imidazo[1,5-a]pyridin-6-yl)pyridin-2-yl)ethanamine], the negative logarithm of the IC50 (pIC50) was > 7.00.

For the compound `Cc1cccc(-n2ncc3c(N)cc(-c4cccc(C(C)N)n4)cc32)n1` (stereo not drawn) [Example 100, 6-(6-(1-aminoethyl)pyridin-2-yl)-1-(6-methylpyridin-2-yl)-1H-indazol-4-amine], the pIC50 is > 7.00. To `CNc1cc(-c2cccc(C(C)N)n2)cc2c1cnn2-c1cccc(C)n1` (stereo not drawn) [Example 101, 6-(6-(1-aminoethyl)pyridin-2-yl)-N-methyl-1-(6-methylpyridin-2-yl)-1H-indazol-4-amine] belongs > 7.00; to `Cc1cccc(-n2ncc3c(N(C)C)cc(-c4cccc(C(C)N)n4)cc32)n1` (stereo not drawn) [Example 102, 6-(6-(1-aminoethyl)pyridin-2-yl)-N,N-dimethyl-1-(6-methylpyridin-2-yl)-1H-indazol-4-amine], > 7.00; to `CC(=O)Nc1cc(-c2cccc(C(C)N)n2)cc2c1cnn2-c1cccc(C)n1` (stereo not drawn) [Example 103, N-(6-(6-(1-aminoethyl)pyridin-2-yl)-1-(6-methylpyridin-2-yl)-1H-indazol-4-yl)acetamide], 6.00 to 7.00.

Compound `Cc1cccc(-n2ncc3c(CN)cc(-c4cccc(C(C)N)n4)cc32)n1` (stereo not drawn) [Example 104, 1-(6-(4-(aminomethyl)-1-(6-methylpyridin-2-yl)-1H-indazol-6-yl)pyridin-2-yl)ethanamine] had a pIC50 of 5.00 to 6.00.

Turning to `CC(=O)NCc1cc(-c2cccc(C(C)N)n2)cc2c1cnn2-c1cccc(C)n1` (stereo not drawn) [Example 105, N-((6-(6-(1-aminoethyl)pyridin-2-yl)-1-(6-methylpyridin-2-yl)-1H-indazol-4-yl)methyl)acetamide], the pIC50 is 6.00 to 7.00. `Cc1cccc(-n2ncc3c(Cl)cc(-c4cccc(C(C)N)n4)cc32)n1` (stereo not drawn) [Example 106, 1-(6-(4-chloro-1-(6-methylpyridin-2-yl)-1H-indazol-6-yl)pyridin-2-yl)ethanamine]: the pIC50 is > 7.00. `Cc1cccc(-n2ncc3c(C4CC4)cc(-c4cccc(C(C)N)n4)cc32)n1` (stereo not drawn) [Example 107, 1-(6-(4-cyclopropyl-1-(6-methylpyridin-2-yl)-1H-indazol-6-yl)pyridin-2-yl)ethanamine] showed a pIC50 of 6.00 to 7.00.

For the compound `C=C(C)c1cc(-c2cccc(C(C)N)n2)cc2c1cnn2-c1cccc(C)n1` (stereo not drawn) [Example 108, 1-(6-(1-(6-methylpyridin-2-yl)-4-(prop-1-en-2-yl)-1H-indazol-6-yl)pyridin-2-yl)ethanamine], the pIC50 was > 7.00.

`CCc1cc(-c2cccc(C(C)N)n2)cc2c1cnn2-c1cccc(C)n1` (stereo not drawn) [Example 109, 1-(6-(4-ethyl-1-(6-methylpyridin-2-yl)-1H-indazol-6-yl)pyridin-2-yl)ethanamine]: the pIC50 is 6.00 to 7.00. `Cc1cccc(-n2ncc3c(C(C)C)cc(-c4cccc(C(C)N)n4)cc32)n1` (stereo not drawn) [Example 110, 1-(6-(4-isopropyl-1-(6-methylpyridin-2-yl)-1H-indazol-6-yl)pyridin-2-yl)ethanamine]: the pIC50 was 6.00 to 7.00. Next, `Cc1cccc(-n2ncc3c(C(F)(F)F)cc(-c4cccc(C(C)N)n4)cc32)n1` (stereo not drawn) [Example 111, 1-(6-(1-(6-methylpyridin-2-yl)-4-(trifluoromethyl)-1H-indazol-6-yl)pyridin-2-yl)ethanamine]: 6.00 to 7.00; `COC(=O)c1cc(-c2cccc(C(C)N)n2)cc2c1cnn2-c1cccc(C)n1` (stereo not drawn) [Example 112, methyl 6-(6-(1-aminoethyl)pyridin-2-yl)-1-(6-methylpyridin-2-yl)-1H-indazole-4-carboxylate]: > 7.00; `Cc1cccc(-n2ncc3c(C(=O)O)cc(-c4cccc(C(C)N)n4)cc32)n1` (stereo not drawn) [Example 113, 6-(6-(1-aminoethyl)pyridin-2-yl)-1-(6-methylpyridin-2-yl)-1H-indazole-4-carboxylic acid]: 6.00 to 7.00. As to `Cc1cccc(-n2ncc3c(CO)cc(-c4cccc(C(C)N)n4)cc32)n1` (stereo not drawn) [Example 114, (6-(6-(1-aminoethyl)pyridin-2-yl)-1-(6-methylpyridin-2-yl)-1H-indazol-4-yl)methanol], the pIC50 was > 7.00.

Take `CNC(=O)c1cc(-c2cccc(C(C)N)n2)cc2c1cnn2-c1cccc(C)n1` (stereo not drawn) [Example 115, 6-(6-(1-aminoethyl)pyridin-2-yl)-N-methyl-1-(6-methylpyridin-2-yl)-1H-indazole-4-carboxamide]: the negative-log IC50 (pIC50) was > 7.00.
